Read-outs that look alike come from different tables or passages of the source.
Tests used:
rats = test: Spontaneous withdrawal tests (body weight); assay type: in vivo
Mice [1] = test: Swelling caused by p-dimethylbenzene in mice; assay type: in vivo; conditions: p.o. 15 or 30 mg/kg
Acute toxicity in rats = conditions: rat, in vivo, po, Bliss method
NMDA receptor = test: Electrophysiology of hippocampus's pyramidal cell: NMDA-induced current; assay type: cell-based; conditions: 100 μM NMDA; read-out: IC50 of suppression of current induced by NMDA
Kunming mice = test: Mice writhing model (acetic acid); assay type: in vivo
Outline: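 Mixed-sex mice received test compound at 20 mg/Kg i.p.; controls received saline p.o. (20 ml/Kg). Thirty minutes later 0.7% acetic acid (10 mg/kg i.p.) was injected, and writhes were counted over 5 minutes. Inhibition ratio was calculated relative to control.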

Mice [2] = assay type: in vivo; conditions: 6 days training
Protocol: 30 mice were divided into 3 groups (10 for each group, ? fifty-fifty): IV-12-1 (1 mg/kg), IV-12-2 (5 mg/kg) and NS. Half of the mice in each group were administrated (s.c.) in the morning and 30 minutes later put into a white box (with medicine), and trained for 30 minutes; Saline is administrated (s.c.) in the afternoon and 30 minutes later put into a black box (without medicine), and trained for 30 minutes. The other half of the group are given saline in the morning and IV-12 in the afternoon, other procedures are the same as above.
The two training periods were at least 6-hour apart and training was continuous for 6 days. On the 7th day, the staying time was tested in both of the boxes.

[3] = IV-12-1 (75 mg/kg), 12 h after withdrawal
[4] = IV-12-1 (75 mg/kg), 24 h after withdrawal
[5] = IV-12-1 (75 mg/kg), 42 h after withdrawal
[6] = IV-12-1 (75 mg/kg), 48 h after withdrawal
[7] = IV-12-1 (75 mg/kg), 66 h after withdrawal
[8] = IV-12-1 (75 mg/kg), 84 h after withdrawal
[9] = IV-12-1 (75 mg/kg), 90 h after withdrawal
[10] = IV-12-1 (75 mg/kg), 96 h after withdrawal
[11] = IV-12-1 (75 mg/kg), 108 h after withdrawal
[12] = IV-12-1 (75 mg/kg), 114 h after withdrawal
[13] = IV-12-1 (75 mg/kg), 120 h after withdrawal
[14] = IV-12-1 (75 mg/kg), 132 h after withdrawal
[15] = IV-12-1 (75 mg/kg), 138 h after withdrawal
[16] = IV-12-1 (75 mg/kg), 144 h after withdrawal
[17] = IV-12-1 (75 mg/kg), 156 h after withdrawal
[18] = IV-12-1 (75 mg/kg), 162 h after withdrawal
[19] = IV-12-1 (75 mg/kg), 168 h after withdrawal
[20] = IV-12-2 (75 mg/kg), 12 h after withdrawal
[21] = IV-12-2 (75 mg/kg), 18 h after withdrawal
[22] = IV-12-2 (75 mg/kg), 24 h after withdrawal
[23] = IV-12-2 (75 mg/kg), 36 h after withdrawal
[24] = IV-12-2 (75 mg/kg), 42 h after withdrawal
[25] = IV-12-2 (75 mg/kg), 48 h after withdrawal
[26] = IV-12-2 (75 mg/kg), 66 h after withdrawal
[27] = IV-12-2 (75 mg/kg), 72 h after withdrawal
[28] = IV-12-2 (75 mg/kg), 84 h after withdrawal
[29] = IV-12-2 (75 mg/kg), 90 h after withdrawal
[30] = IV-12-2 (75 mg/kg), 96 h after withdrawal
[31] = IV-12-2 (75 mg/kg), 108 h after withdrawal
[32] = IV-12-2 (75 mg/kg), 120 h after withdrawal
[33] = IV-12-2 (75 mg/kg), 138 h after withdrawal
[34] = IV-12-2 (75 mg/kg), 144 h after withdrawal
[35] = IV-12-2 (75 mg/kg), 156 h after withdrawal
[36] = IV-12-2 (75 mg/kg), 162 h after withdrawal
[37] = IV-12-2 (75 mg/kg), 168 h after withdrawal

## Nc1ccc(CN2CCN(CC(=O)c3ccccc3)CC2)cc1 [IV-12, N^1-(4-aminobenzyl)-N^4-phenacyl piperazine]
rats; IV-12-1 75 mg/kg, ♀, 18 h after withdrawal
  Weight after withdrawal compared with weight one day before withdrawal: 1.01 ± 0.03
rats; IV-12-1 75 mg/kg, ♀, 42 h after withdrawal
  Weight after withdrawal compared with weight one day before withdrawal: 1.02 ± 0.05
rats; IV-12-1 75 mg/kg, ♀, 66 h after withdrawal
  Weight after withdrawal compared with weight one day before withdrawal: 1.03 ± 0.04
rats; IV-12-1 75 mg/kg, ♀, 90 h after withdrawal
  Weight after withdrawal compared with weight one day before withdrawal: 1.04 ± 0.06
rats; IV-12-1 75 mg/kg, ♀, 114 h after withdrawal
  Weight after withdrawal compared with weight one day before withdrawal: 1.06 ± 0.06
rats; IV-12-1 75 mg/kg, ♀, 162 h after withdrawal
  Weight after withdrawal compared with weight one day before withdrawal: 1.08 ± 0.07
rats; IV-12-1 75 mg/kg, ♂, 18 h after withdrawal
  Weight after withdrawal compared with weight one day before withdrawal: 1.01 ± 0.03
rats; IV-12-1 75 mg/kg, ♂, 42 h after withdrawal
  Weight after withdrawal compared with weight one day before withdrawal: 1.02 ± 0.03
rats; IV-12-1 75 mg/kg, ♂, 66 h after withdrawal
  Weight after withdrawal compared with weight one day before withdrawal: 1.04 ± 0.04
rats; IV-12-1 75 mg/kg, ♂, 90 h after withdrawal
  Weight after withdrawal compared with weight one day before withdrawal: 1.06 ± 0.05
rats; IV-12-1 75 mg/kg, ♂, 114 h after withdrawal
  Weight after withdrawal compared with weight one day before withdrawal: 1.08 ± 0.05
rats; IV-12-1 75 mg/kg, ♂, 138 h after withdrawal
  Weight after withdrawal compared with weight one day before withdrawal: 1.11 ± 0.06
rats; IV-12-1 75 mg/kg, ♂, 162 h after withdrawal
  Weight after withdrawal compared with weight one day before withdrawal: 1.12 ± 0.09
rats; [3]
  Increase (%) of weight: 2.9%
  Weight: 248.1 ± 42 g
rats; IV-12-1 (75 mg/kg), 18 h after withdrawal
  Weight: 250.5 ± 39 g
rats; [4]
  Increase (%) of weight: 2.2%
  Weight: 246.3 ± 37 g
rats; IV-12-1 (75 mg/kg), 36 h after withdrawal
  Weight: 253.9 ± 38 g
rats; [5]
  Increase (%) of weight: 4.3%
  Weight: 251.3 ± 37 g
rats; [6]
  Increase (%) of weight: 3.3%
  Weight: 249.1 ± 36 g
rats; IV-12-1 (75 mg/kg), 60 h after withdrawal
  Increase (%) of weight: 7.2%
rats; [7]
  Increase (%) of weight: 4.8%
  Weight: 252.8 ± 37 g
rats; IV-12-1 (75 mg/kg), 72 h after withdrawal
  Increase (%) of weight: 4.4%
rats; [8]
  Increase (%) of weight: 9.4%
  Weight: 263.7 ± 40 g
rats; [9]
  Increase (%) of weight: 6.8%
  Weight: 257.4 ± 39 g
rats; [10]
  Increase (%) of weight: 5.4%
  Weight: 254.2 ± 43 g
rats; [11]
  Increase (%) of weight: 11.4%
  Weight: 268.6 ± 42 g
rats; [12]
  Increase (%) of weight: 8.5%
  Weight: 261.6 ± 40 g
rats; [13]
  Increase (%) of weight: 8.0%
  Weight: 260.3 ± 40 g
rats; [14]
  Increase (%) of weight: 14.4%
  Weight: 275.8 ± 41 g
rats; [15]
  Increase (%) of weight: 11.3%
  Weight: 268.3 ± 41 g
rats; [16]
  Increase (%) of weight: 9.8%
  Weight: 264.7 ± 42 g
rats; [17]
  Increase (%) of weight: 15.7%
  Weight: 279.0 ± 44 g
rats; [18]
  Increase (%) of weight: 12.4%
  Weight: 271.0 ± 44 g
rats; [19]
  Increase (%) of weight: 11.7%
  Weight: 269.2 ± 45 g
rats; IV-12-1 (75 mg/kg), before withdraw
  Weight: 241.1 ± 38 g
rats; IV-12-2 100 mg/kg, ♀, 42 h after withdrawal
  Weight after withdrawal compared with weight one day before withdrawal: 1.01 ± 0.05
rats; IV-12-2 100 mg/kg, ♀, 66 h after withdrawal
  Weight after withdrawal compared with weight one day before withdrawal: 1.01 ± 0.06
rats; IV-12-2 100 mg/kg, ♀, 90 h after withdrawal
  Weight after withdrawal compared with weight one day before withdrawal: 1.02 ± 0.06
rats; IV-12-2 100 mg/kg, ♀, 114 h after withdrawal
  Weight after withdrawal compared with weight one day before withdrawal: 1.02 ± 0.07
rats; IV-12-2 100 mg/kg, ♀, 138 h after withdrawal
  Weight after withdrawal compared with weight one day before withdrawal: 1.04 ± 0.07
rats; IV-12-2 100 mg/kg, ♀, 162 h after withdrawal
  Weight after withdrawal compared with weight one day before withdrawal: 1.04 ± 0.07
rats; IV-12-2 100 mg/kg, ♂, 18 h after withdrawal
  Weight after withdrawal compared with weight one day before withdrawal: 0.99 ± 0.04
rats; IV-12-2 100 mg/kg, ♂, 42 h after withdrawal
  Weight after withdrawal compared with weight one day before withdrawal: 1.00 ± 0.04
rats; IV-12-2 100 mg/kg, ♂, 66 h after withdrawal
  Weight after withdrawal compared with weight one day before withdrawal: 1.00 ± 0.05
rats; IV-12-2 100 mg/kg, ♂, 90 h after withdrawal
  Weight after withdrawal compared with weight one day before withdrawal: 1.00 ± 0.04
rats; IV-12-2 100 mg/kg, ♂, 114 h after withdrawal
  Weight after withdrawal compared with weight one day before withdrawal: 1.01 ± 0.04
rats; IV-12-2 100 mg/kg, ♂, 138 h after withdrawal
  Weight after withdrawal compared with weight one day before withdrawal: 1.03 ± 0.06
rats; IV-12-2 100 mg/kg, ♂, 162 h after withdrawal
  Weight after withdrawal compared with weight one day before withdrawal: 1.04 ± 0.08
rats; [20]
  Increase (%) of weight: 2.0%
  Weight: 259.8 ± 34 g
rats; [21]
  Increase (%) of weight: 2.0%
  Weight: 259.8 ± 33 g
rats; [22]
  Increase (%) of weight: 0.4%
  Weight: 255.9 ± 32 g
rats; [23]
  Increase (%) of weight: 1.9%
  Weight: 259.5 ± 33 g
rats; [24]
  Increase (%) of weight: 1.4%
  Weight: 258.5 ± 32 g
rats; [25]
  Increase (%) of weight: 0.8%
  Weight: 256.8 ± 31 g
rats; IV-12-2 (75 mg/kg), 60 h after withdrawal
  Weight: 259.6 ± 31 g
rats; [26]
  Increase (%) of weight: 0.8%
  Weight: 256.8 ± 27 g
rats; [27]
  Increase (%) of weight: 0.4%
  Weight: 255.7 ± 29 g
rats; [28]
  Increase (%) of weight: 3.4%
  Weight: 263.6 ± 30 g
rats; [29]
  Increase (%) of weight: 1.3%
  Weight: 258.2 ± 30 g
rats; [30]
  Increase (%) of weight: 0.9%
  Weight: 257.1 ± 28 g
rats; [31]
  Increase (%) of weight: 4.5%
  Weight: 266.3 ± 33 g
rats; IV-12-2 (75 mg/kg), 114 h after withdrawal
  Increase (%) of weight: 2.1%
rats; [32]
  Increase (%) of weight: 1.4%
  Weight: 258.3 ± 29 g
rats; IV-12-2 (75 mg/kg), 132 h after withdrawal
  Weight: 272.6 ± 35 g
rats; [33]
  Increase (%) of weight: 4.0%
  Weight: 264.9 ± 32 g
rats; [34]
  Increase (%) of weight: 3.5%
  Weight: 263.6 ± 32 g
rats; [35]
  Increase (%) of weight: 6.6%
  Weight: 271.5 ± 40 g
rats; [36]
  Increase (%) of weight: 4.9%
  Weight: 267.2 ± 38 g
rats; [37]
  Increase (%) of weight: 4.5%
  Weight: 266.3 ± 36 g
rats; IV-12-2 (75 mg/kg), before withdraw
  Weight: 254.8 ± 32 g
Mice [1]
  Antagonism for swelling caused by p-dimethylbenzene: no antagonism
Acute toxicity in rats
  LD50: 414 mg/kg
NMDA receptor
  IC50: 1110 ± 1000 nM
Kunming mice; 20 mg/kg, Table 5 summary
  Writhing (K i): 100
Kunming mice; Mus musculus, ip, i.p. 20 mg/Kg, acetic acid 0.7% i.p. after 30 minutes, writhes in 5 minutes, read-out: Analgesia (inhibition ratio of writhing)
  inhibition in vivo at 20 mg/kg: 100%
Kunming mice; Mus musculus, po, Mice, Acetic acid Writhing, read-out: Analgesia ED50
  ED50: 13.2 mg/kg
Mice [2]; 1 mg/kg s.c.
  Staying time in box with medicine: 496.4 ± 73.4 s
Mice [2]; 5 mg/kg s.c.
  Staying time in box with medicine: 452.8 ± 119.5 s

From patent US7332495B2 (priority 2002, dated 2008)
